# Measurements taken from patent US9034873B2, “Pyridazine and pyrrole compounds, processes for obtaining them and uses” (Centre National de la Recherche Scientifique (C.N.R.S.), priority 2006, dated 2015).
# Where two headings read alike, the source gives them in different places.
# Assays:
# Caco (colon) = test: IC50 of the referent molecules on Caco (colon) cells; type: cell-based
# Sub7 (liver) = test: IC50 of the referent molecules on Sub7 (liver) cells; type: cell-based
# Fibroblast (skin) = test: IC50 of the referent molecules on Fibroblast (skin) cells; type: cell-based
# Leishmania mexicana = test: Parasitology: activity against Leishmania mexicana; type: cell-based
# Candida albicans = test: Parasitology: activity against Candida albicans; type: cell-based
# [1] = test system: KB, Caco, Huh7 and fibroblast cells; test: Cancer cell model: in vitro test on KB, Caco, Huh7 and fibroblast cells; type: cell-based
# Cytotoxicity on KB cells = type: cell-based; settings: human
# Aspergillus fumigatus = test: Parasitology: activity against Aspergillus fumigatus; type: cell-based; settings: for IC80: IC80 stated in the cell
# [2] = test system: Leishmania mexicana promastigotes; test: Activity against Leishmania mexicana, promastigotes; type: cell-based; settings: for IC50: Leishmania mexicana, read-out: Activity against Leishmania mexicana (IC50 μg/ml) promastigotes, promastigote stage
# [3] = test system: Leishmania mexicana amastigotes; test: Activity against Leishmania mexicana, amastigotes; type: cell-based; settings: amastigote stage; for IC50: Leishmania mexicana, read-out: Activity against Leishmania mexicana (IC50 μg/ml) amastigotes
# tonB protein = tonB protein (Escherichia coli, UniProt P02929); test: Effect on tonB protein (iron transport used for bacterial growth); settings: tonB protein involved in the iron transport process used for bacterial growth
# tonB protein, sequence (P02929 whole entry): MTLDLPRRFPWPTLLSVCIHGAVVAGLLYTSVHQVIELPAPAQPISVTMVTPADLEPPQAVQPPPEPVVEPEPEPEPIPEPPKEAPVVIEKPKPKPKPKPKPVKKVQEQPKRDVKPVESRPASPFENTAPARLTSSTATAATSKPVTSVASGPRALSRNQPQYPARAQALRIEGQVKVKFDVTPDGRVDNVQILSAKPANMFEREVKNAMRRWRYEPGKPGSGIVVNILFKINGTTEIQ
# [4] = 24 h, read-out: IC50 μM Caco (colon) 24 h
# [5] = 48 h, read-out: IC50 μM Caco (colon) 48 h
# [6] = 24 h, read-out: IC50 μM Sub7 (liver) 24 h
# [7] = 48 h, read-out: IC50 μM Sub7 (liver) 48 h
# [8] = Fibroblast, 24 h, read-out: IC50 μM Fibroblast (skin) 24 h
# [9] = Fibroblast, 48 h, read-out: IC50 μM Fibroblast (skin) 48 H
# [10] = read-out: Parasitology IC50 or 80 Leishmania mexicana μM
# [11] = read-out: Parasitology IC50 or 80 Leishmania mexicana μg/mL
# [12] = read-out: Parasitology IC50 or 80 Candida albicans μM
# [13] = read-out: Parasitology IC50 or 80 Candida albicans μg/mL
# [14] = KB cells, read-out: KB cells Cytotoxicity IC50 μM
smiles,measurement,setting,value
"O=c1[nH]cc(F)c(=O)[nH]1 [Compound 5FU, 5FU]",IC50,Caco (colon); [4],0.5 µM
same,IC50,Caco (colon); [5],0.5 µM
same,IC50,Sub7 (liver); [6],> 25 µM
same,IC50,Sub7 (liver); [7],> 25 µM
same,IC50,"Fibroblast (skin); 48 H, read-out: IC50 μM Fibroblast (skin) 48 H",> 25 µM
same,IC50,"Fibroblast (skin); 24 h, read-out: IC50 μM Fibroblast (skin) 24 h",> 25 µM
COc1cccc2c1C(=O)c1c(O)c3c(c(O)c1C2=O)C[C@@](O)(C(=O)CO)C[C@@H]3O[C@H]1C[C@H](N)[C@H](O)[C@H](C)O1 [Doxorubicine],IC50,Caco (colon); [4],1 µM
same,IC50,Caco (colon); [5],0.06 µM
same,IC50,Sub7 (liver); [6],0.4 µM
same,IC50,Sub7 (liver); [7],0.04 µM
same,IC50,Fibroblast (skin); [8],2 µM
same,IC50,Fibroblast (skin); [9],1 µM
"c1ccc(-c2ccc(Sc3ccc(-c4ccccn4)nn3)nn2)nc1 [Compound 11, di(6-pyridin-2-yl)pyridazine thioether]",IC50,Leishmania mexicana; [10],3 µM
same,IC50,Leishmania mexicana; [11],8.73 µg/mL
same,IC50,Candida albicans; [12],99 µM
same,IC50,Candida albicans; [13],24.2 µg/mL
same,cytotoxic activity in a cancer cell model,[1],very high cytotoxic activity
"O=c1ccc(-c2cccc(-c3ccc(=O)[nH]n3)n2)n[nH]1 [Compound 36, 2,6-bis(3-oxo-2H-pyridazin-6-yl)pyridine]",IC50,Cytotoxicity on KB cells; [14],2.6 µM
same,IC50,Leishmania mexicana; [10],41 µM
same,IC50,Leishmania mexicana; [11],11 µg/mL
same,IC50,Candida albicans; [12],> 100 µM
same,IC50,Candida albicans; [13],> 26.7 µg/mL
"c1ccc(-c2ccc(Oc3ccc(-c4ccccn4)nn3)nn2)nc1 [Compound 9, di(6-pyridin-2-yl)pyridazine ether]",IC50,Leishmania mexicana; [10],> 100 µM
same,IC50,Leishmania mexicana; [11],> 22.8 µg/mL
same,IC50,Candida albicans; [12],> 100 µM
same,IC50,Candida albicans; [13],> 22.8 µg/mL
same,IC50,"Aspergillus fumigatus; cell does not say IC50 or IC80, read-out: Parasitology IC50 or 80 Aspergillus fumigatus μM",> 100 µM
same,IC50,"Aspergillus fumigatus; cell does not say IC50 or IC80, read-out: Parasitology IC50 or 80 Aspergillus fumigatus μg/mL",> 22.8 µg/mL
"c1ccc(-c2ccc(-c3cccc(-c4ccc(-c5ccccn5)nn4)n3)nn2)nc1 [Compound 33, 2,6-bis[6-(pyridin-2-yl)pyridazin-3-yl]-pyridine]",IC50,Cytotoxicity on KB cells; [14],6.27 µM
same,IC50,"Cytotoxicity on KB cells; KB cells, read-out: KB cells Cytotoxicity IC50 μg/mL",1.81 µg/mL
same,IC50,Leishmania mexicana; [10],0.19 µM
same,IC50,Leishmania mexicana; [11],0.05 µg/mL
same,IC50,Candida albicans; [12],6.4 µM
same,IC50,Candida albicans; [13],1.85 µg/mL
same,IC80,Aspergillus fumigatus; read-out: Aspergillus fumigatus IC80 μM,32 µM
same,IC80,Aspergillus fumigatus; read-out: Aspergillus fumigatus IC80 μg/mL,9.26 µg/mL
CC(=O)O[C@H]1C(=O)[C@@]2(C)[C@H]([C@H](OC(=O)c3ccccc3)[C@]3(O)C[C@H](OC(=O)[C@H](O)[C@@H](NC(=O)c4ccccc4)c4ccccc4)C(C)=C1C3(C)C)[C@]1(OC(C)=O)CO[C@@H]1C[C@@H]2O [Taxol],IC50,Caco (colon); [4],0.01 µM
same,IC50,Caco (colon); [5],< 0.008 µM
same,IC50,Sub7 (liver); [6],0.01 µM
same,IC50,Sub7 (liver); [7],< 0.01 µM
same,IC50,Fibroblast (skin); [8],> 25 µM
same,IC50,Fibroblast (skin); [9],> 25 µM
CC[C@H](CO)Nc1nc(NCc2ccccc2)c2ncn(C(C)C)c2n1 [Roscovitine],IC50,Fibroblast (skin); [8],> 25 µM
same,IC50,Fibroblast (skin); [9],> 25 µM
"O=C(O)c1cccc(-c2ccc(-c3cccc(-c4ccc(-c5cccc(C(=O)O)n5)nn4)n3)nn2)n1 [Compound 50, 2,6-bis[3-(2-carboxypyridin-6-yl)pyridazin-6-yl]pyridine]",IC50,Leishmania mexicana; [10],8 µM
same,IC50,Leishmania mexicana; [11],3.8 µg/mL
same,IC50,Candida albicans; [12],63 µM
same,IC50,Candida albicans; [13],30.1 µg/mL
same,cytotoxic activity in a cancer cell model,[1],very high cytotoxic activity
CC(=O)N1CCN(c2ccc(OCC3COC(Cn4ccnc4)(c4ccc(Cl)cc4Cl)O3)cc2)CC1 (stereo not shown) [Ketoconazole],IC50,[2],~0.3 µg/mL
same,IC50,[3],1.3 ± 0.2 µg/mL
C[C@@H]1[C@H](O)[C@@H](C)/C=C/C=C/C=C/C=C/C=C/C=C/C=C/[C@H](O[C@@H]2O[C@H](C)[C@@H](O)[C@H](N)[C@@H]2O)C[C@@H]2O[C@](O)(C[C@@H](O)C[C@@H](O)[C@H](O)CC[C@@H](O)C[C@@H](O)CC(=O)O[C@H]1C)C[C@H](O)[C@H]2C(=O)O [Amphotericin B],Activity against Leishmania mexicana (IC50 μg/ml) amastigotes,[3],0.47 ± 0.05 µg/mL
"S=c1ccc(-c2ccccn2)n[nH]1 [Compound 10, 6-(pyridin-2-yl)-2H-pyridazine-3-thione]",cytotoxic activity in a cancer cell model,[1],very high cytotoxic activity
"c1ccc(-c2ccc(-c3ccc4ccc5ccc(-c6ccc(-c7ccccn7)nn6)nc5c4n3)nn2)nc1 [Compound 66, 2,9-bis[6-(pyridin-2-yl)pyridazin-3-yl][1,10]phenanthroline]",IC50,Leishmania mexicana; [10],16 µM
same,IC50,Leishmania mexicana; [11],7.84 µg/mL
same,IC50,Candida albicans; [12],> 100 µM
same,IC50,Candida albicans; [13],≥ 49.1 µg/mL
CCCCCCCCCCCCCCCCOP(=O)([O-])OCC[N+](C)(C)C [Miltefosine],IC50,[2],> 2 µg/mL
same,Activity against Leishmania mexicana (IC50 μg/ml) promastigotes,[2]; promastigote stage,>2 µg/mL
same,IC50,[3],1.42 ± 0.14 µg/mL
"Cc1cccc(-c2ccc(-c3cccc(-c4ccc(-c5cccc(C)n5)nn4)n3)nn2)n1 [Compound 49, 2,6-bis[6-(6-methylpyridin-2-yl)pyridazin-3-yl)pyridine]",cytotoxic activity in a cancer cell model,[1],very high cytotoxic activity
"C=C(OCC)c1ccc(-c2ccc(C(=C)OCC)nn2)nn1 [Compound 24, 6,6′-di(1-ethoxyvinyl)-3,3′-bipyridazine]",IC50,"Cytotoxicity on KB cells; KB cancer cells, text of Example 2, read-out: cytotoxic potential on KB cancer cells, IC50",0.3 µg/mL
same,cytotoxic activity in a cancer cell model,[1],very high cytotoxic activity
same,effect on the tonB protein,tonB protein,affects the tonB protein
